Measurements reported in patent US11554110B2, “Pemafibrate dosing regimens” (Kowa Company, Ltd., priority 2017, dated 2023).

Tests used:
Format in all cases: in vivo, healthy adult subjects
[1] = Drug interaction study of pemafibrate with clarithromycin (plasma pharmacokinetics of pemafibrate); details: for AUC(0-inf) / Cmax: human, plasma, po, 0.4 mg, geometric mean
Description: A study was conducted to investigate the effect of clarithromycin on the pharmacokinetics of pemafibrate in healthy adult subjects.
20 healthy adult subjects
Subjects were orally administered on the following schedule. The administration of 0.4 mg of pemafibrate on Days 1 and 9 was carried out under fasting for at least 8 hours, and the fasting was maintained for 4 hours after the administration. • Day 1: Pemafibrate 0.4 mg alone • Day 4 to 8: Clarithromycin 500 mg twice per day (1000 mg/day) • Day 9: Pemafibrate 0.4 mg single dose and Clarithromycin 500 mg twice per day (1000 mg/day) • Day 10 to 11: Clarithromycin 500 mg twice per day (1000 mg/day) Measurement
Plasma concentration of pemafibrate was measured on blood samples from patients collected prior to and at 0.25, 0.5, 1, 1.5, 2, 3, 4, 6, 8, 10, 12, 14, 16, 24, 36, 48, 72 hours after administration of 0.4 mg of pemafibrate on Days 1 and 9.
For estimates of the Cmax of pemafibrate and the area under the concentration-time curves (AUC0-inf) up to infinity hours, the geometric mean values and the ratios of the geometric mean values for concomitant administration to those for the single administration are shown in Table 2.

[2] = Drug interaction study of pemafibrate with cyclosporine (plasma pharmacokinetics of pemafibrate); details: for AUC(0-inf) / Cmax: human, plasma, po, 0.4 mg, geometric mean, oral, fasting
Description: A study was conducted to investigate the effect of cyclosporine on the pharmacokinetics of pemafibrate in healthy adult subjects.
Subjects were orally administered on the following schedule. Drug administration was carried out under fasting for at least 8 hours, and fasting was maintained for 4 hours after administration. • Day 1: Pemafibrate 0.4 mg alone • Day 4: Combined single dose of 0.4 mg of pemafibrate and 600 mg of cyclosporine (Neoral® or its equivalent) [Measurement]
(§1) Plasma concentration of pemafibrate was measured on blood samples from patients taken prior to and at 0.25, 0.5, 1, 1.5, 2, 3, 4, 6, 8, 10, 12, 14, 16, 24, 36, 48, 72 hours after administration of the drug on Days 1 and 4.
For estimates of the Cmax of pemafibrate and the area under the concentration-time curves (AUC0-inf) up to infinity hours, the geometric mean values and the ratios of the geometric mean values for concomitant administration to those for the single administration are shown in Table 3.

[3] = Drug interaction study of pemafibrate with clopidogrel (plasma pharmacokinetics of pemafibrate); details: for AUC(0-inf) / Cmax: human, plasma, po; for AUC0-inf ratio (concomitant use/single use) / Cmax ratio (concomitant use/single use): ratio of geometric means
Description: A study was conducted to investigate the effect of clopidogrel on the pharmacokinetics of pemafibrate in healthy adult subjects.
Subjects were orally administered on the following schedule. Pemafibrate administration on Days 1, 4, and 7 was carried out under fasting for at least 8 hours and maintained fasting for 4 hours after administration. • Day 1: Pemafibrate 0.4 mg alone • Day 4: A single dose of 0.4 mg of pemafibrate plus 391.5 mg of clopidogrel sulfate (equivalent to 300 mg of clopidogrel) • Day 5 to 6: Clopidogrel Sulfate 91.875 mg (equivalent to Clopidogrel 75 mg) alone • Day 7: A single dose of 0.4 mg of pemafibrate and 91.875 mg of clopidogrel sulfate (equivalent to 75 mg of clopidogrel) • Day 8 to 9: Clopidogrel Sulfate 91.875 mg (equivalent to Clopidogrel 75 mg) alone Measurement
Plasma concentration of pemafibrate was measured on blood samples from patients taken prior to and at 0.25, 0.5, 1, 1.5, 2, 3, 4, 6, 8, 10, 12, 14, 16, 24, 36, 48, 72 hours after administration of the drug on Days 1, 4, and 7.
For estimates of the Cmax of pemafibrate and the area under the concentration-time curves (AUC0-inf) up to infinity hours, the geometric mean values and the ratios of the geometric mean values of the single-dose concomitant administration (Day 4) to those for the single administration (Day 1) are shown in Table 4.
For the Cmax and AUC0-inf of pemafibrate, the geometric mean values and the ratios of the geometric mean values for concomitant administration after repeated administration of clopidogrel (day 7) to those for the single administration (day 1) are shown in Table 5.

[4] = Drug interaction study of pemafibrate with rifampicin (plasma pharmacokinetics of pemafibrate); details: for AUC(0-inf) / Cmax: human, plasma, po, 0.4 mg, geometric mean, oral, fasting
Description: A study was conducted to investigate the effect of rifampicin on the pharmacokinetics of pemafibrate in healthy adult subjects.
Subjects were orally administered on the following schedule. The administration of 0.4 mg of pemafibrate on Days 1 and 4 was carried out under fasting for at least 8 hours, and the fasting was maintained for 4 hours after the administration. • Day 1: Pemafibrate 0.4 mg alone • Day 4: A single dose of 0.4 mg of pemafibrate plus 600 mg of rifampicin • Days 5-6: Rifampicin 600 mg alone [Measurement]
as §1
For estimates of the Cmax of pemafibrate and the area under the concentration-time curves (AUC0-inf) up to infinity hours, the geometric mean values and the ratios of the geometric mean values for concomitant administration to those for the single administration are shown in Table 1.

[5] = ratio of geometric means, with clarithromycin 1000 mg/day vs pemafibrate alone
[6] = Day 1, pemafibrate 0.4 mg alone, read-out: AUC0-inf, single administration
[7] = Day 1, pemafibrate 0.4 mg alone, read-out: Cmax, single administration
[8] = ratio of geometric means, with cyclosporine 600 mg vs pemafibrate alone
[9] = Day 4 (clopidogrel 300 mg single dose) vs Day 1
[10] = Day 7 (after repeated clopidogrel, 75 mg) vs Day 1
[11] = ratio of geometric means, with rifampicin 600 mg vs pemafibrate alone

CC[C@@H](Oc1cccc(CN(CCCOc2ccc(OC)cc2)c2nc3ccccc3o2)c1)C(=O)O [pemafibrate, (2R)-2-[3-({1,3-benzoxazol-2-yl[3-(4-methoxyphenoxy)propyl]amino}methyl)phenoxy]butanoic acid]
plasma concentration of pemafibrate, concomitant vs alone ([1]; concomitant administration with clarithromycin compared with pemafibrate alone): increase in the plasma concentration of pemafibrate | AUC(0-inf) ([1]; Day 1, pemafibrate 0.4 mg alone, oral, fasting, read-out: AUC0-inf, single administration): 0.017 µg·h/mL | Cmax ([1]; Day 1, pemafibrate 0.4 mg alone, oral, fasting, read-out: Cmax, single administration): 4.67 ng/mL | AUC(0-inf) ([1]; Day 9, pemafibrate 0.4 mg single dose with clarithromycin 500 mg twice per day (given from Day 4), read-out: AUC0-inf, concomitant administration): 0.0357 µg·h/mL | Cmax ([1]; Day 9, pemafibrate 0.4 mg single dose with clarithromycin 500 mg twice per day (given from Day 4), read-out: Cmax, concomitant administration): 11.3 ng/mL | AUC0-inf ratio (concomitant use/single use) [1, 5]: 2.0975 | Cmax ratio (concomitant use/single use) [1, 5]: 2.4246 | plasma concentration of pemafibrate, concomitant vs alone ([2]; concomitant administration with cyclosporine compared with pemafibrate alone): increase in the plasma concentration of pemafibrate | AUC(0-inf) [2, 6]: 0.0134 µg·h/mL | Cmax [2, 7]: 4.59 ng/mL | AUC(0-inf) ([2]; Day 4, combined single dose pemafibrate 0.4 mg and cyclosporine 600 mg, read-out: AUC0-inf, concomitant administration): 0.187 µg·h/mL | Cmax ([2]; Day 4, combined single dose pemafibrate 0.4 mg and cyclosporine 600 mg, read-out: Cmax, concomitant administration): 41.2 ng/mL | AUC0-inf ratio (concomitant use/single use) [2, 8]: 13.9947 | Cmax ratio (concomitant use/single use) [2, 8]: 8.9644 | plasma concentration of pemafibrate, concomitant vs alone ([3]; concomitant administration after repeated administration of clopidogrel (day 7) compared with pemafibrate alone (day 1)): increase in the plasma concentration of pemafibrate | AUC0-inf, concomitant administration ([3]; geometric mean, Day 7, pemafibrate 0.4 mg plus clopidogrel sulfate 91.875 mg (equivalent to 75 mg of clopidogrel) after repeated administration of clopidogrel): 0.0335611 µg·h/mL | AUC(0-inf) ([3]; 0.4 mg, geometric mean, Day 1, pemafibrate 0.4 mg alone, oral, fasting, read-out: AUC0-inf, single administration): 0.0161 µg·h/mL | Cmax ([3]; 0.4 mg, geometric mean, Day 1, pemafibrate 0.4 mg alone, oral, fasting, read-out: Cmax, single administration): 4.77 ng/mL | Cmax ([3]; 0.4 mg, geometric mean, Day 4, single dose pemafibrate 0.4 mg plus clopidogrel sulfate 391.5 mg (equivalent to 300 mg of clopidogrel), read-out: Cmax, concomitant administration): 7.08 ng/mL | AUC(0-inf) ([3]; geometric mean, Day 4, single dose pemafibrate 0.4 mg plus clopidogrel sulfate 391.5 mg (equivalent to 300 mg of clopidogrel), read-out: AUC0-inf, concomitant administration): 0.0381 µg·h/mL | Cmax ([3]; geometric mean, Day 7, pemafibrate 0.4 mg plus clopidogrel sulfate 91.875 mg (equivalent to 75 mg of clopidogrel) after repeated administration of clopidogrel, read-out: Cmax, concomitant administration): 6.39 ng/mL | AUC0-inf ratio (concomitant use/single use) [3, 9]: 2.3728 | Cmax ratio (concomitant use/single use) [3, 9]: 1.4855 | AUC0-inf ratio (concomitant use/single use) [3, 10]: 2.0876 | Cmax ratio (concomitant use/single use) [3, 10]: 1.3415 | plasma concentration of pemafibrate, concomitant vs alone ([3]; single-dose concomitant administration with clopidogrel (Day 4) compared with pemafibrate alone (Day 1)): increase in the plasma concentration of pemafibrate | plasma concentration of pemafibrate, concomitant vs alone ([4]; concomitant administration with rifampicin compared with pemafibrate alone): increase in the plasma concentration of pemafibrate | AUC(0-inf) [4, 6]: 0.0201 µg·h/mL | Cmax [4, 7]: 5.67 ng/mL | AUC(0-inf) ([4]; Day 4, single dose pemafibrate 0.4 mg plus rifampicin 600 mg, read-out: AUC0-inf, concomitant administration): 0.219 µg·h/mL | Cmax ([4]; Day 4, single dose pemafibrate 0.4 mg plus rifampicin 600 mg, read-out: Cmax, concomitant administration): 53.5 ng/mL | AUC0-inf ratio (concomitant use/single use) [4, 11]: 10.9009 | Cmax ratio (concomitant use/single use) [4, 11]: 9.436
